# Test results as given in article PMC4721142, “Randomized controlled studies on the efficacy of antiarthritic agents in inhibiting cartilage degeneration and pain associated with progression of osteoarthritis in the rat” (Arthritis Research & Therapy, 2016).
# “And” between values parts separate entries of the source, which are not always exact repeats. Equal values may be shown once.
# Key:
# MMT/MCLT rat model of OA [1] = assay: MMT/MCLT trial 1 histopathology (same doses); format: in vivo; parameters: key to Tibial cartilage degeneration score, 3-zone total: sum of three tibial zone scores (each on 5-point scale); key to Total joint score w/o femur / Total joint score / Total joint score without femur: sum: cartilage degeneration scores + mean osteophyte score; conditions: for % decrease, bone score / % decrease, femoral cartilage degeneration score / % decrease, osteophyte measure / % decrease, osteophyte score / % decrease, significant degeneration width / % decrease, tibial score 3-zone total / % decrease, tibial score zone 1 / % decrease, tibial score zone 2 / % decrease, tibial score zone 3 / % decrease, total degeneration width / % decrease, total joint score / % decrease, total joint score w/o femur: vs saline group
# Description: (§1) For MMT/MCLT rat knee joints, sections were cut in 200-μm steps; stained with toluidine blue (also with a right and left half per section); and similarly analyzed for cartilage degeneration, proteoglycan loss, collagen damage, and osteophyte formation. Results were averaged across the three sections for an overall semiquantitative score. Regional differences across the tibial plateau were taken into consideration by dividing each section into three zones delineated using an ocular micrometer (outside, middle, and inside). Scores were based on the percentage of area affected within the zone.
# (§2) Cartilage degeneration in the tibia was scored on a 5-point scale as detailed in the Methods section of Additional file 1. The total extent of degeneration of the tibial plateau was measured (in micrometers) and included an analysis of cell loss, proteoglycan loss, and collagen damage. Significant cartilage degeneration reflecting any degeneration extending through more than 50 % of the cartilage thickness was also measured. Collagen damage across the medial tibial plateau (the most severely affected section of the two halves) was also quantified.
# (§3) Osteophytes and femoral cartilage degeneration were analyzed as detailed in Additional file 1. Scoring of the osteophytes and categorization into small, medium, and large was performed using an ocular micrometer. The actual osteophyte measurement (tidemark to farthest distance point extending toward the synovium) was also recorded. The femoral cartilage degeneration score and the three-zone sum of the tibial cartilage degeneration scores (mean of three levels) were summed to create a total cartilage degeneration score. The mean osteophyte score for each joint was added to this value to create a total joint score. […]
# (§4) Histopathology MMT/MCLT Model
# MMT/MCLT rat model of OA [2] = assay: MMT/MCLT trial 2 histopathology (same doses); format: in vivo; parameters: key to Total joint score w/o femur / Total joint score: sum: cartilage degeneration scores + mean osteophyte score; conditions: mean; i.a., tacrolimus 15 ng
# Description: as §1, §2, §3, §4
# [3] = individual animals, fluocinolone 10 μg/kg, 21 days
# [4] = mean, tacrolimus 0.6 mg/kg, fluocinolone 10 μg/kg
# [5] = mean, tacrolimus 0.6 mg/kg, fluocinolone 10 μg/kg, listed as fluocinolone
# [6] = vs group 1, fluocinolone 10 μg/kg
# [7] = tacrolimus 0.6 mg/kg, fluocinolone 10 μg/kg
compound,measurement,setting,value
"CC1(C)O[C@@H]2C[C@H]3[C@@H]4C[C@H](F)C5=CC(=O)C=C[C@]5(C)[C@@]4(F)[C@@H](O)C[C@]3(C)[C@]2(C(=O)CO)O1 [Fluocinolone, Fluocinolone Acetonide]",Bone score,MMT/MCLT rat model of OA [1]; [3],3.00 and 2.00 and 4.00 and 1.00
same,Femoral cartilage degeneration score,MMT/MCLT rat model of OA [1]; [3],1.00 and 2.00 and 3.00 and 2.33 and 1.33
same,"Tibial cartilage degeneration score, 3-zone total",MMT/MCLT rat model of OA [1]; [3],4.67 and 5.00 and 6.33 and 7.00 and 7.67 and 5.33 and 6.00
same,"Tibial cartilage degeneration score, zone 1",MMT/MCLT rat model of OA [1]; [3],3.00 and 4.33 and 3.33 and 4.67 and 4.00
same,"Tibial cartilage degeneration score, zone 2",MMT/MCLT rat model of OA [1]; [3],1.67 and 2.00 and 1.33 and 2.33 and 2.67
same,"Tibial cartilage degeneration score, zone 3",MMT/MCLT rat model of OA [1]; [3],0.00 and 0.33
same,"Tibial cartilage degeneration width, significant",MMT/MCLT rat model of OA [1]; [3],466.67 μm and 433.33 μm and 633.33 μm and 766.67 μm and 800.00 μm and 566.67 μm and 666.67 μm
same,"Tibial cartilage degeneration width, total",MMT/MCLT rat model of OA [1]; [3],1400.00 μm and 1066.67 μm and 1133.33 μm and 1000.00 μm and 1600.00 μm and 1266.67 μm and 1100.00 μm
same,Tibial osteophyte measure,MMT/MCLT rat model of OA [1]; [3],333.33 μm and 413.33 μm and 280.00 μm and 426.67 μm and 586.67 μm and 400.00 μm and 380.00 μm
same,Tibial osteophyte score,MMT/MCLT rat model of OA [1]; [3],2.00 and 2.33 and 3.00 and 1.33 and 4.67 and 2.67
same,Total joint score,MMT/MCLT rat model of OA [1]; [3],7.67 and 8.33 and 11.33 and 9.00 and 12.33 and 15.33 and 9.67 and 10.67
same,Total joint score without femur,MMT/MCLT rat model of OA [1]; [3],6.67 and 7.33 and 9.33 and 6.00 and 10.00 and 12.33 and 8.33 and 8.67
same,Bone score,"MMT/MCLT rat model of OA [1]; mean, low or only dose",2.38
same,Femoral cartilage degeneration score,"MMT/MCLT rat model of OA [1]; mean, low or only dose",1.33 and 1.33 ± 0.14
same,"Tibial cartilage degeneration score, 3-zone total","MMT/MCLT rat model of OA [1]; mean, low or only dose",6.08
same,"Tibial cartilage degeneration score, zone 1","MMT/MCLT rat model of OA [1]; mean, low or only dose",4.17
same,"Tibial cartilage degeneration score, zone 2","MMT/MCLT rat model of OA [1]; mean, low or only dose",1.88
same,"Tibial cartilage degeneration score, zone 3","MMT/MCLT rat model of OA [1]; mean, low or only dose",0.04
same,"Tibial cartilage degeneration width, significant","MMT/MCLT rat model of OA [1]; mean, low or only dose",608.33 µm
same,"Tibial cartilage degeneration width, total","MMT/MCLT rat model of OA [1]; mean, low or only dose",1154.17 µm
same,Tibial osteophyte measure,"MMT/MCLT rat model of OA [1]; mean, low or only dose",455.00 µm
same,Tibial osteophyte score,"MMT/MCLT rat model of OA [1]; mean, low or only dose",3.33
same,Total joint score,"MMT/MCLT rat model of OA [1]; mean, low or only dose",10.75 and 10.75 ± 0.61
same,Total joint score w/o femur,"MMT/MCLT rat model of OA [1]; mean, low or only dose",9.42
same,Bone score,MMT/MCLT rat model of OA [1]; [4],2.63
same,Femoral cartilage degeneration score,MMT/MCLT rat model of OA [1]; [4],1.96 ± 0.77
same,"Tibial cartilage degeneration score, 3-zone total",MMT/MCLT rat model of OA [1]; [4],5.83
same,"Tibial cartilage degeneration score, zone 1",MMT/MCLT rat model of OA [1]; [4],3.88
same,"Tibial cartilage degeneration score, zone 2",MMT/MCLT rat model of OA [1]; [4],1.92
same,"Tibial cartilage degeneration score, zone 3",MMT/MCLT rat model of OA [1]; [4],0.04
same,"Tibial cartilage degeneration width, significant",MMT/MCLT rat model of OA [1]; [4],595.83 μm
same,"Tibial cartilage degeneration width, total",MMT/MCLT rat model of OA [1]; [4],1212.50 μm
same,Tibial osteophyte measure,MMT/MCLT rat model of OA [1]; [4],394.17 μm
same,Tibial osteophyte score,MMT/MCLT rat model of OA [1]; [4],2.75
same,Total joint score,MMT/MCLT rat model of OA [1]; [4],10.54 ± 0.88
same,Total joint score w/o femur,MMT/MCLT rat model of OA [1]; [4],8.58
same,Femoral cartilage degeneration score,MMT/MCLT rat model of OA [1]; [5],1.96
same,Total joint score,MMT/MCLT rat model of OA [1]; [5],10.54
same,"% increase, area of viable cartilage matrix","MMT/MCLT rat model of OA [1]; tacrolimus 0.3 mg/kg, fluocinolone 5 ug/kg",17%
same,"% increase, area of viable cartilage matrix","MMT/MCLT rat model of OA [1]; tacrolimus 0.6 mg/kg, fluocinolone 10 ug/kg",20%
same,"Percentage, bone score",MMT/MCLT rat model of OA [1]; [6],0.19
same,"Percentage, femoral cartilage degeneration score",MMT/MCLT rat model of OA [1]; [6],−0.07
same,"Percentage, osteophyte measure",MMT/MCLT rat model of OA [1]; [6],0.23
same,"Percentage, osteophyte score",MMT/MCLT rat model of OA [1]; [6],0.30
same,"Percentage, significant degeneration width",MMT/MCLT rat model of OA [1]; [6],0.18
same,"Percentage, tibial score zone 1",MMT/MCLT rat model of OA [1]; [6],0.10
same,"Percentage, tibial score zone 2",MMT/MCLT rat model of OA [1]; [6],0.13
same,"Percentage, tibial score zone 3",MMT/MCLT rat model of OA [1]; [6],0.00
same,"Percentage, total degeneration width",MMT/MCLT rat model of OA [1]; [6],0.08
same,"Percentage, total joint score",MMT/MCLT rat model of OA [1]; [6],0.14
same,"Percentage, total joint score without femur",MMT/MCLT rat model of OA [1]; [6],0.18
same,"% decrease, bone score",MMT/MCLT rat model of OA [1]; low or only dose,27%
same,"% decrease, femoral cartilage degeneration score",MMT/MCLT rat model of OA [1]; low or only dose,27%
same,"% decrease, osteophyte measure",MMT/MCLT rat model of OA [1]; low or only dose,11%
same,"% decrease, osteophyte score",MMT/MCLT rat model of OA [1]; low or only dose,15%
same,"% decrease, significant degeneration width",MMT/MCLT rat model of OA [1]; low or only dose,16%
same,"% decrease, tibial score 3-zone total",MMT/MCLT rat model of OA [1]; low or only dose,7%
same,"% decrease, tibial score zone 1",MMT/MCLT rat model of OA [1]; low or only dose,3%
same,"% decrease, tibial score zone 2",MMT/MCLT rat model of OA [1]; low or only dose,15%
same,"% decrease, tibial score zone 3",MMT/MCLT rat model of OA [1]; low or only dose,0%
same,"% decrease, total degeneration width",MMT/MCLT rat model of OA [1]; low or only dose,12%
same,"% decrease, total joint score",MMT/MCLT rat model of OA [1]; low or only dose,13%
same,"% decrease, total joint score w/o femur",MMT/MCLT rat model of OA [1]; low or only dose,10%
same,"% decrease, bone score",MMT/MCLT rat model of OA [1]; [7],19%
same,"% decrease, femoral cartilage degeneration score",MMT/MCLT rat model of OA [1]; [7],-7%
same,"% decrease, osteophyte measure",MMT/MCLT rat model of OA [1]; [7],23%
same,"% decrease, osteophyte score",MMT/MCLT rat model of OA [1]; [7],30%
same,"% decrease, significant degeneration width",MMT/MCLT rat model of OA [1]; [7],18%
same,"% decrease, tibial score 3-zone total",MMT/MCLT rat model of OA [1]; [7],11%
same,"% decrease, tibial score zone 1",MMT/MCLT rat model of OA [1]; [7],10%
same,"% decrease, tibial score zone 2",MMT/MCLT rat model of OA [1]; [7],13%
same,"% decrease, tibial score zone 3",MMT/MCLT rat model of OA [1]; [7],0%
same,"% decrease, total degeneration width",MMT/MCLT rat model of OA [1]; [7],8%
same,"% decrease, total joint score",MMT/MCLT rat model of OA [1]; [7],14%
same,"% decrease, total joint score w/o femur",MMT/MCLT rat model of OA [1]; [7],18%
same,Femoral cartilage degeneration score,MMT/MCLT rat model of OA [2],0.8 ± 0.25
same,Total joint score,MMT/MCLT rat model of OA [2],9.80 ± 0.51
